Where two headings read alike, the source gives them in different places.
Tested on: P. falciparum (NF54 or 3D7 strain)
Test: Assay for P. falciparum proliferation in infected human blood cells (SYBR Green)
Type: cell-based, Plasmodium falciparum
Conditions: Plasmodium falciparum, 72 h, NF54 or 3D7 infected human erythrocytes, 72 hours, read-out: EC50 (nM), inhibitory efficacy in delaying P. falciparum proliferation in infected human blood cells
Outline: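 Infected erythrocytes (NF54 or 3D7; final 2.5% hematocrit, 0.3% parasitemia) were incubated with compounds for 72 h at 37 °C in low oxygen (3% O2, 4% CO2, 93% N2).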

SMILES	EC50 (Erythrocyte)	EC50 (3D7|NF54, Erythrocyte, in Homo sapiens)
O=C(c1cn2c(-c3ccc(C(F)(F)F)cc3)cnc2cn1)N1CCCc2cc(Cl)ccc21 [Compound 218, 6-chloro-1-({3-[4-(trifluoromethyl)phenyl]imidazo[1,2-a]pyrazin-6-yl}carbonyl)-1,2,3,4-tetrahydroquinoline]	680 nM	
CNc1nnc(-c2ccc(-c3cnc4cnc(C(=O)N(C)c5ccc(Cl)nc5)cn34)cc2)s1 [Compound 262, N-(6-chloropyridin-3-yl)-N-methyl-3-{4-[5-(methylamino)-1,3,4-thiadiazol-2-yl]phenyl}imidazo[1,2-a]pyrazine-6-carboxamide]	97 nM	
CN(C(=O)c1cn2c(-c3ccc(OC(F)F)cc3)cnc2cn1)c1ccc(C#N)cc1 [Compound 214, N-(4-cyanophenyl)-3-[4-(difluoromethoxy)phenyl]-N-methylimidazo[1,2-a]pyrazine-6-carboxamide]	31 nM	
CN(C(=O)c1cn2c(-c3ccc(-c4ccnn4C)cc3)cnc2cn1)c1ccc(C#N)cc1 [Compound 208, N-(4-cyanophenyl)-N-methyl-3-[4-(1-methyl-1H-pyrazol-5-yl)phenyl]imidazo[1,2-a]pyrazine-6-carboxamide]	724 nM	
CN(C(=O)c1cn2c(-c3ccc(C(F)(F)F)cc3)cnc2cn1)c1cccc(Cl)c1 [Compound 35, N-(3-chlorophenyl)-N-methyl-3-[4-(trifluoromethyl)phenyl]imidazo[1,2-a]pyrazine-6-carboxamide]	462 nM	
Cc1cccnc1N(C)C(=O)c1cn2c(-c3ccc(C(F)(F)F)cc3)cnc2cn1 [Compound 390, N-methyl-N-(3-methylpyridin-2-yl)-3-[4-(trifluoromethyl)phenyl]imidazo[1,2-a]pyrazine-6-carboxamide]	2650 nM	
Cc1n[nH]c2ccc(-c3cnc4cnc(C(=O)N(C)c5ccc(C#N)cc5)cn34)cc12 [Compound 424]	291 nM	
CS(=O)(=O)c1ccc(NC(=O)c2cn3c(-c4ccc(C(F)(F)F)cc4)cnc3cn2)cc1 [Compound 128, N-(4-methanesulfonylphenyl)-3-[4-(trifluoromethyl)phenyl]imidazo[1,2-a]pyrazine-6-carboxamide]	> 10000 nM	
CN(C(=O)c1ccc(OC(F)(F)F)cc1)c1cn2c(-c3ccc(C(F)(F)F)cc3)cnc2cn1 [Compound 366, N-methyl-4-(trifluoromethoxy)-N-{3-[4-(trifluoromethyl)phenyl]imidazo[1,2-a]pyrazin-6-yl}benzamide]	> 6250 nM	
CN(C(=O)c1cn2c(-c3ccc(C(F)(F)F)cc3)cnc2cn1)c1cncc(Cl)c1 [Compound 355, N-(5-chloropyridin-3-yl)-N-methyl-3-[4-(trifluoromethyl)phenyl]imidazo[1,2-a]pyrazine-6-carboxamide]	2120 nM	
CN(C(=O)c1cn2c(-c3ccc4c(ccn4C)c3)cnc2cn1)c1ccc(C#N)cc1 [Compound 123, N-(4-cyanophenyl)-N-methyl-3-(1-methyl-1H-indol-5-yl)imidazo[1,2-a]pyrazine-6-carboxamide]	387 nM	
CC(C)N(C(=O)c1cn2c(-c3ccc(C(F)(F)F)cc3)cnc2cn1)c1ccc(C#N)cc1 [Compound 92, N-(4-cyanophenyl)-N-(propan-2-yl)-3-[4-(trifluoromethyl)phenyl]imidazo[1,2-a]pyrazine-6-carboxamide]	349 nM	
CN(C(=O)c1cn2c(-c3ccc(C(F)(F)F)cc3)cnc2cn1)c1ccc(Br)cc1 [Compound 215, N-(4-bromophenyl)-N-methyl-3-[4-(trifluoromethyl)phenyl]imidazo[1,2-a]pyrazine-6-carboxamide]	86 nM	
CN(C(=O)c1cn2c(-c3cnc4c(cnn4C)c3)cnc2cn1)c1ccc(C#N)cc1 [Compound 391, N-(4-cyanophenyl)-N-methyl-3-{1-methyl-1H-pyrazolo[3,4-b]pyridin-5-yl}imidazo[1,2-a]pyrazine-6-carboxamide]	2910 nM	
COC(=O)c1ccc(-c2cnc3cnc(C(=O)N(C)c4ccc(C#N)cc4)cn23)cc1 [Compound 166, methyl 4-{6-[(4-cyanophenyl)(methyl)carbamoyl]imidazo[1,2-a]pyrazin-3-yl}benzoate]	206 nM	
CN(C(=O)c1cn2c(-c3ccc(CN)cc3)cnc2cn1)c1ccc(C#N)cc1 [Compound 186, 3-[4-(aminomethyl)phenyl]-N-(4-cyanophenyl)-N-methylimidazo[1,2-a]pyrazine-6-carboxamide]	9170 nM	
CN(C(=O)c1cn2c(-c3ccc(C(F)(F)F)cc3)cnc2cn1)c1cccc(Br)c1 [Compound 183, N-(3-bromophenyl)-N-methyl-3-[4-(trifluoromethyl)phenyl]imidazo[1,2-a]pyrazine-6-carboxamide]	2400 nM	
CN(C(=O)c1cn2c(-c3ncccc3Cl)cnc2cn1)c1ccc(C#N)cc1 [Compound 354, 3-(3-chloropyridin-2-yl)-N-(4-cyanophenyl)-N-methylimidazo[1,2-a]pyrazine-6-carboxamide]	6070 nM	

SMILES	EC50 (Erythrocyte)	EC50 (3D7|NF54, Erythrocyte, in Homo sapiens)
CN(C(=O)c1cn2c(-c3ccc(C(F)(F)F)cc3)cnc2cn1)c1ccc(-n2ccc(C(F)(F)F)n2)cc1 [Compound 206, -methyl-N-{4-[3-(trifluoromethyl)-1H-pyrazol-1-yl]phenyl}-3-[4-(trifluoromethyl)phenyl]imidazo[1,2-a]pyrazine-6-carboxamide]	> 9760 nM	
N#Cc1ccc(CNC(=O)c2cn3c(-c4ccc(C(F)(F)F)cc4)cnc3cn2)cc1 [Compound 362, -[(4-cyanophenyl)methyl]-3-[4-(trifluoromethyl)phenyl]imidazo[1,2-a]pyrazine-6-carboxamide]	6470 nM	
CN(C(=O)c1cn2c(-c3ccc(C(C)(F)F)cc3)cnc2cn1)c1ccc(Cl)nc1 [Compound 237, N-(6-chloropyridin-3-yl)-3-[4-(1,1-difluoroethyl)phenyl]-N-methylimidazo[1,2-a]pyrazine-6-carboxamide]	100 nM	
COc1cc(N(C)C(=O)c2cn3c(-c4ccc(C(F)(F)F)cc4)cnc3cn2)ccn1 [Compound 296, N-(2-methoxypyridin-4-yl)-N-methyl-3-[4-(trifluoromethyl)phenyl]imidazo[1,2-a]pyrazine-6-carboxamide]	1280 nM	
CN(C(=O)c1cn2c(-c3ccc(C(F)(F)F)cc3)cnc2cn1)c1ccccc1F [Compound 119, N-(2-fluorophenyl)-N-methyl-3-[4-(trifluoromethyl)phenyl]imidazo[1,2-a]pyrazine-6-carboxamide]	507 nM	
Cc1cnc(N(C)C(=O)c2cn3c(-c4ccc(C(F)(F)F)cc4)cnc3cn2)cn1 [Compound 327, N-methyl-N-(5-methylpyrazin-2-yl)-3-[4-(trifluoromethyl)phenyl]imidazo[1,2-a]pyrazine-6-carboxamide]	3310 nM	
Fc1ccc2c(c1)CCCN2Cc1cn2c(-c3ccc(C(F)(F)F)cc3)cnc2cn1 [Compound 234, 6-fluoro-1-({3-[4-(trifluoromethyl)phenyl]imidazo[1,2-a]pyrazin-6-yl}methyl)-1,2,3,4-tetrahydroquinoline]	148 nM	
CN(C(=O)c1cn2c(-c3ccc(C(F)(F)F)nc3)cnc2cn1)c1ccc(Cl)nc1 [Compound 413, N-(6-chloropyridin-3-yl)-N-methyl-3-[6-(trifluoromethyl)pyridin-3-yl]imidazo[1,2-a]pyrazine-6-carboxamide]	7400 nM	
CN(C(=O)c1cn2c(-c3ccc(Cl)cc3)cnc2cn1)c1ccc(Cl)cc1 [Compound 109, N,3-bis(4-chlorophenyl)-N-methylimidazo[1,2-a]pyrazine-6-carboxamide]	120 nM	
CN(C(=O)c1cn2c(-c3ccc(-c4nnc(N)o4)cc3)cnc2cn1)c1ccc(Cl)cc1 [Compound 15, -[4-(5-amino-1,3,4-oxadiazol-2-yl)phenyl]-N-(4-chlorophenyl)-N-methylimidazo[1,2-a]pyrazine-6-carboxamide]	29 nM	
CN(C(=O)c1cn2c(-c3ccc(-n4cccn4)cc3)cnc2cn1)c1ccc(C#N)cc1 [Compound 87, N-(4-cyanophenyl)-N-methyl-3-[4-(1H-pyrazol-1-yl)phenyl]imidazo[1,2-a]pyrazine-6-carboxamide]	104 nM	
CN(C(=O)c1cn2c(-c3cc4cc(C#N)ccc4[nH]3)cnc2cn1)c1ccc(C#N)cc1 [Compound 252]		> 8280 nM
CN(C(=O)c1cn2c(-c3ccc(NC(=O)CN)cc3)cnc2cn1)c1ccc(C#N)cc1 [Compound 247, 3-[4-(2-aminoacetamido)phenyl]-N-(4-cyanophenyl)-N-methylimidazo[1,2-a]pyrazine-6-carboxamide]	611 nM	
CN(C(=O)c1cn2c(-c3cnc(N4CCCC4=O)cn3)cnc2cn1)c1ccc(C#N)cc1 [Compound 211, N-(4-cyanophenyl)-N-methyl-3-[5-(2-oxopyrrolidin-1-yl)pyrazin-2-yl]imidazo[1,2-a]pyrazine-6-carboxamide]	9390 nM	
CN(C(=O)c1cn2c(-c3ccc(-c4ccn[nH]4)cc3)cnc2cn1)c1ccc(F)cc1 [Compound 257, N-(4-fluorophenyl)-N-methyl-3-[4-(1H-pyrazol-5-yl)phenyl]imidazo[1,2-a]pyrazine-6-carboxamide]	92 nM	
CN(C)Cc1ccc(-c2cnc3cnc(C(=O)N(C)c4ccc(Cl)nc4)cn23)cc1 [Compound 388, N-(6-chloropyridin-3-yl)-3-{4-[(dimethylamino)methyl]phenyl}-N-methylimidazo[1,2-a]pyrazine-6-carboxamide]	762 nM	
CN(C(=O)c1cn2c(-c3ccc(C(F)(F)F)cc3)cnc2cn1)c1ccc(C#N)cc1F [Compound 293, N-(4-cyano-2-fluorophenyl)-N-methyl-3-[4-(trifluoromethyl)phenyl]imidazo[1,2-a]pyrazine-6-carboxamide]	76 nM	
CN(C(=O)c1cn2c(-c3ccc(Cl)cc3Cl)cnc2cn1)c1ccc(C#N)cc1 [Compound 20, N-(4-cyanophenyl)-3-(2,4-dichlorophenyl)-N-methylimidazo[1,2-a]pyrazine-6-carboxamide]	> 10000 nM	

Source: patent US20150291598A1 (NOVARTIS AG, priority 2012, published 2015)
